Test results from patent US20070129313A1, “Sulfonylamino-peptidomimetics active on the somatostatin receptor subtypes 4 (sstr4) and 1 (sstr1)” (SIEGFRIED WURSTER, priority 2003, published 2007).

What was measured:
NPFF receptor = details: rat tissue; cited from earlier work
[1] = target: T1, human somatostatin receptor subtype SSTR4 (Homo sapiens, UniProt P31391); assay: Competition binding with 125I-LTT-sst-28, CHO cell membranes, SSTR4; details: membranes of CHO cells stably transfected with human SSTR4, Ki from IC50 by Cheng-Prusoff
T1 construct: expressed in transfected cells; host or cells: Chinese hamster ovary (CHO) cells, membranes
T1 sequence (P31391 whole entry): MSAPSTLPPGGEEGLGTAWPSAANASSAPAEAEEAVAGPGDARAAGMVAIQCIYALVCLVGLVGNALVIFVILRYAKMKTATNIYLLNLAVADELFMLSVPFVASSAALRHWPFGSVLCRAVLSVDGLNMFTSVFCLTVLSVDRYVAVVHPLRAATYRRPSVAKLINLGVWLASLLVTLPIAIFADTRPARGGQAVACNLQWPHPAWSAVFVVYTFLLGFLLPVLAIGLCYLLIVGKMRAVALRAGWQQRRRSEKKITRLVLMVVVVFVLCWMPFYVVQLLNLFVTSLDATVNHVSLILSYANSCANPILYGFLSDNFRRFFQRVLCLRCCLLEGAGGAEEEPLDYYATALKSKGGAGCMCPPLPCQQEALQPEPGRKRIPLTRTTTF
Experimental: (§1) The affinity of the compounds of the invention for the five human somatostatin receptor subtypes (SSTR1, SSTR2, SSTR3, SSTR4, and SSTR5) was determined in competition binding assays with (^125I-Tyr)-[Leu^8, DTrp^22]-somatostatin-28 (^125I-LTT-sst-28). The biological material for these experiments consisted of membranes from Chinese hamster ovary (CHO) cells stably transfected with one of the five human somatostatin receptor subtypes. Membranes (3-20 μg of total protein per sample) and trace amount of ^125I-LTT-sst-28 were incubated in 10 mM Hepes, 1 mM EDTA, 5 mM MgCl2, 5 mg/ml of BSA and 30 μg/ml bacitracin, pH 7.6 with six concentrations of the compounds. Each concentration was run in duplicate. Nonspecific binding was defined by 1 μM somatostatin-14 (sst-14) and corresponded to 5-25% of total binding. After 60 min at room temperature, incubations were terminated by rapid vacuum filtration through GF/B glass fiber filter mats (presoaked at 4° C. in 200 ml of 10 mM Hepes, 1 mM EDTA, 5 mM MgCl2, pH 7.6) and three 5 ml washes with ice-cold wash buffer (20 mM TRIS, 1 mM EDTA, 5 mM MgCl2, pH 7.4). The filters were then dried, impregnated with scintillate and their radioactivity was measured by scintillation counting. The analysis of the experiments was carried out by nonlinear least square curve fitting. Affinity constants (Ki) were calculated from the IC50 values according to the Cheng-Prusoff's equation (Cheng and Prusoff, 1973). Experiments were repeated a minimum of three times.

[2] = target: T2, human somatostatin receptor subtype SSTR5 (Homo sapiens, UniProt P35346); assay: Competition binding with 125I-LTT-sst-28, CHO cell membranes, SSTR5; details: membranes of CHO cells stably transfected with human SSTR5, Ki from IC50 by Cheng-Prusoff
T2 construct: expressed in transfected cells; host or cells: Chinese hamster ovary (CHO) cells, membranes
T2 sequence (P35346 whole entry): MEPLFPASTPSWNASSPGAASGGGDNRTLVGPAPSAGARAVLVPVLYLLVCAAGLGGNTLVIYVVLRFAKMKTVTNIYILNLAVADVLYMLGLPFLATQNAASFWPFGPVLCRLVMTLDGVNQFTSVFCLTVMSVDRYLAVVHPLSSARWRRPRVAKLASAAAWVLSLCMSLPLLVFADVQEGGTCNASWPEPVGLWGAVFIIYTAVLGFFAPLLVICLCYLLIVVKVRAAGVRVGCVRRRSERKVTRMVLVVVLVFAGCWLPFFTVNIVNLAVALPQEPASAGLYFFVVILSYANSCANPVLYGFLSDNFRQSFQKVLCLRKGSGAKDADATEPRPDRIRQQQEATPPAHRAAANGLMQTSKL
Experimental: as §1

[3] = target: T3, human somatostatin receptor subtype SSTR2 (Homo sapiens, UniProt P30874); assay: Competition binding with 125I-LTT-sst-28, CHO cell membranes, SSTR2; details: membranes of CHO cells stably transfected with human SSTR2, Ki from IC50 by Cheng-Prusoff
T3 construct: expressed in transfected cells; host or cells: Chinese hamster ovary (CHO) cells, membranes
T3 sequence (P30874 whole entry): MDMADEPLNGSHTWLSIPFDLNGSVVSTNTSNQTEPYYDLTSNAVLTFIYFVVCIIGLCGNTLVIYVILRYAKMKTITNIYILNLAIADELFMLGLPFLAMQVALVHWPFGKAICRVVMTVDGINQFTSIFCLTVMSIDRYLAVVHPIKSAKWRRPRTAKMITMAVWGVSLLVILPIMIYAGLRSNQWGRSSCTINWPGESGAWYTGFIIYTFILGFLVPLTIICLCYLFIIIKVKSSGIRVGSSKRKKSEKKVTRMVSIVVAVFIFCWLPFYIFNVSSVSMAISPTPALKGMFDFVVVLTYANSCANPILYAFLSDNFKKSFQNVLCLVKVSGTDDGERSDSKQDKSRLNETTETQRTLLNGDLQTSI
Experimental: as §1

[4] = target: T4, human somatostatin receptor subtype SSTR3 (Homo sapiens, UniProt P32745); assay: Competition binding with 125I-LTT-sst-28, CHO cell membranes, SSTR3; details: membranes of CHO cells stably transfected with human SSTR3, Ki from IC50 by Cheng-Prusoff
T4 construct: expressed in transfected cells; host or cells: Chinese hamster ovary (CHO) cells, membranes
T4 sequence (P32745 whole entry): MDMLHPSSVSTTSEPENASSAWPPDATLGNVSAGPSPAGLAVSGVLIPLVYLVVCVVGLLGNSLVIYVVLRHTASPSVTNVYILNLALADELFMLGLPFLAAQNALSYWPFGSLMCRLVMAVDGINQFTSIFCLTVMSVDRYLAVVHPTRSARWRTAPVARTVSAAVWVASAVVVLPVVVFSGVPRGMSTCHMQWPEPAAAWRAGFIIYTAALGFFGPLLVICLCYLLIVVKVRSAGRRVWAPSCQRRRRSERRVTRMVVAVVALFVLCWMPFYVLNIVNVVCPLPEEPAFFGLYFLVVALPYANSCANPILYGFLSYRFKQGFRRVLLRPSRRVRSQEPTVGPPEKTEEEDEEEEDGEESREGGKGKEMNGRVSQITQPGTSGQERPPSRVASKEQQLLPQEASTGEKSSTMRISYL
Experimental: as §1

[5] = target: T5, human somatostatin receptor subtype SSTR1 (Homo sapiens, UniProt P30872); assay: Competition binding with 125I-LTT-sst-28, CHO cell membranes, SSTR1; details: membranes of CHO cells stably transfected with human SSTR1, Ki from IC50 by Cheng-Prusoff
T5 construct: expressed in transfected cells; host or cells: Chinese hamster ovary (CHO) cells, membranes
T5 sequence (P30872 whole entry): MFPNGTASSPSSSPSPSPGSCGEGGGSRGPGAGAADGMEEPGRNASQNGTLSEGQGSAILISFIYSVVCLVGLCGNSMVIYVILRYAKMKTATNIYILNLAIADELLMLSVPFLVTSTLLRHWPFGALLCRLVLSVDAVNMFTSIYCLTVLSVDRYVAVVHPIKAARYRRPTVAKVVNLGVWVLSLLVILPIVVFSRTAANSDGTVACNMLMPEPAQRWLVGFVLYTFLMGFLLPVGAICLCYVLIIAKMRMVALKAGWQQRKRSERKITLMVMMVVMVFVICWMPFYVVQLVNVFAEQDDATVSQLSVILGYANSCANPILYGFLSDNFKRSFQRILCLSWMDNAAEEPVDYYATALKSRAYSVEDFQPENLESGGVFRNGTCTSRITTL
Experimental: as §1

Row | Compound | affinity for NPFF receptor (NPFF receptor) [nM] | Ki [1] [µM] | Ki [2] [µM] | Ki [3] [µM] | Ki [4] [µM] | Ki [5] [µM]
1 | CN(C)c1cccc2c(S(=O)(=O)N[C@@H](CCCN=C(N)N)C(=O)N[C@@H](Cc3ccccc3)C(N)=O)cccc12 [Dansyl-RFamide] | 73 |  |  |  |  | 
2 | Cc1ccc(S(=O)(=O)N[C@@H](CCCNC(=N)N)C(=O)N[C@@H](Cc2ccccc2)C(N)=O)c2ccccc12 [compound 1, N-((S)-1-carbamoyl-2-phenylethyl)-5-guanidino-(S)-2-(N′-(4-methyl-1-naphthalenesulfonyl)amino)pentanamide] |  | 0.0036 ± 0.0007 | > 10 | > 10 | > 10 | 0.073 ± 0.019
3 | Cc1ccc(S(=O)(=O)N[C@@H](CCCNC(=N)N)C(=O)N[C@H](C(N)=O)C(c2ccccc2)c2ccccc2)c2ccccc12 [compound 2, N-((S)-1-carbamoyl-2,2-diphenylethyl)-5-guanidino-(S)-2-(N′-(4-methyl-1-naphthalenesulfonyl)amino)pentanamide] |  | 0.0015 ± 0.0007 | > 5 | > 10 | > 5 | 0.034 ± 0.014
4 | Cc1ccc(S(=O)(=O)N[C@@H](CCCN)C(=O)N[C@@H](Cc2ccccc2)C(N)=O)c2ccccc12 [compound 3, 5-amino-N-((S)-1-carbamoyl-2-phenylethyl)-(S)-2-(N′-(4-methyl-1-naphthalenesulfonyl)amino)pentanamide] |  | 0.0065 ± 0.0017 | > 1 | > 1 | > 1 | 0.26 ± 0.02
5 | Cc1ccc(S(=O)(=O)N[C@@H](CCN)C(=O)N[C@@H](Cc2ccccc2)C(N)=O)c2ccccc12 [compound 5, 4-amino-N-((S)-1-carbamoyl-2-phenylethyl)-(S)-2-(N′-(4-methyl-1-naphthalenesulfonyl)amino)butanamide] |  |  | 0.54 ± 0.08 | > 1 |  | 0.5 ± 0.15
6 | CCc1ccc(S(=O)(=O)N[C@@H](CCN)C(=O)N[C@@H](Cc2ccccc2)C(N)=O)c2ccccc12 [compound 6, 4-amino-N-((S)-1-carbamoyl-2-phenylethyl)-(S)-2-(N′-(4-ethyl-1-naphthalenesulfonyl)amino)butanamide] |  | 0.0023 ± 0.0004 |  | > 10 |  | 0.99 ± 0.08
7 | Cc1ccc(S(=O)(=O)N[C@@H](CCN)C(=O)N[C@H](C(N)=O)C(c2ccccc2)c2ccccc2)c2ccccc12 [compound 7, 4-amino-N-((S)-1-carbamoyl-2,2-diphenylethyl)-(S)-2-(N′-(4-methyl-1-naphthalenesulfonyl)amino)butanamide] |  | 0.0053 ± 0.0021 | > 10 | > 10 | > 5 | > 1
